The text below walks through data of patent US10596172B2 (Celgene CAR LLC, priority 2008, dated 2020).

Like-named read-outs stand apart in the source and are kept apart here.

As a reminder, the EC50 is the concentration needed to bring the measured effect to its halfway point.

One test deals with Erbb4 kinase domain (Homo sapiens (Human), UniProt Q15303). The test can be described thus: Mass spectrometry for ERBB4. The conditions noted are these: 60 minutes at 10-fold excess of compound. It counts as binding. The protocol: Erbb4 kinase domain (Upstate) was incubated with compound for 60 minutes at 10-fold excess of compound I-4 and I-11 to protein. 1 μl aliquots of the samples (total volume of 4.24 ul) were diluted with 10 μl of 0.1% TFA prior to micro C4 ZipTipping directly onto the MALDI target using Sinapinic acid as the desorption matrix (10 mg/ml in 0.1% TFA:Acetonitrile 50:50). For intact protein mass measurement the instrument was set in Linear mode using a pulsed extraction setting of 16,952 for the myoglobin standard used to calibrate the instrument (Shimadzu Axima TOF^2).
Intact ErbB4 protein occurs at MH+ of 35850 with corresponding sinapinic (matrix) adducts occurring about 200 Da higher. A stoichiometric incorporation of the test compound (I-4 and I-11) (Mw of 410 Da) produced a new mass peak which is approximately 410 Da higher (MH+ of 36260).

For test [1], the target named is T1, JAK3 (Homo sapiens (Human), UniProt P52333). The test is described as follows: Mass spectrometry for Janus-3 kinase (JAK3). It counts as binding. The conditions noted are these: 3 hrs at 10x excess, tryptic digest. On the procedure:
JAK3 kinase (33 pmols; Invitrogen) was incubated with (I-7) (327 pmols) for 3 hrs at 10× excess prior to tryptic digestion. Iodoacetamide was used as the alkylating agent after compound incubation. For tryptic digests a 5 ul aliquot (5.5 pmols) was diluted with 15 ul of 0.1% TFA prior to micro C18 Zip Tipping directly onto the MALDI target using alpha cyano-4-hydroxy cinnamic acid as the matrix (5 mg/ml in 0.1% TFA:Acetonitrile 50:50).
As depicted in FIG. 11, the expected peptide ([…]) to be modified was immediately evident as the largest peak at MH+ of 1725.88. This is the mass to be expected when compound I-7, with an adduct mass of 345.16, is added to the peptide mass of 1380.70. […] There was also evidence for a number of other modified peptides, however, their signals were low.
To further verify the presence of the modified peptides with compound I-7, the peptides at MH+ of 1725.88 and 1118.55 were subjected to PSD (MS/MS) analysis. A correlational analysis with the homo sapien database identified the correct peptides as being modified by I-7.
For tryptic digests the instrument was set in Reflectron mode with a pulsed extraction setting of 2200. Calibration was done using the Laser Biolabs Pep Mix standard ([…], 1296.69, 1672.92, 2093.09, 2465.20). […]

The target of test [2] is T1, JAK3. The test can be described thus: Omnia assay for potency assessment against the active form of JAK3. It counts as biochemical. The following applies: read-out: JAK3 Inhibition.
The target in test [3] is T2, BTK (Homo sapiens (Human), UniProt Q06187). The test is described as follows: Omnia assay for potency assessment against BTK. The conditions noted are these: [BTK]=5 nm; read-out: BTK Inhibition. It counts as biochemical. The protocol: Omnia Assay Protocol for Potency Assessment Against BTK
The modified BTK-optimized reagent conditions for the above protocol are:
[BTK]=5 nm, [ATP]=40 mM, [Y5-Sox]=10 mM (ATP KMapp˜36 mM).

In test [4] the target is T2, BTK. The test can be described thus: BTK Ramos cellular assay (phosphorylation of BTK substrate PLCγ2). It counts as cell-based. The following applies: Ramos cells, compound 1 hour, anti-human IgM stimulation, read-out: BTK Inhibition (BTK Ramos Cellular Inhibition Data). On the procedure:
Ramos cells were grown in suspension in T225 flasks, spun down, resuspended in 50 ml serum-free media and incubated for 1 hour. […] Ramos cells were incubated with compound for 1 hour, washed again and resuspended in 100 ul serum-free media. Cells were then stimulated with 1 μg of goat F(ab′)2 Anti-Human IgM and incubated on ice for 10 minutes to activate B cell receptor signaling pathways. After 10 minutes, the cells were washed once with PBS and then lysed on ice with Invitrogen Cell Extraction buffer. 16 μg total protein from lysates were loaded on gel and blots were probed for phosphorylation of the BTK substrate PLCγ2.

In the next test the target is ITK (Homo sapiens (Human), UniProt Q08881). The test can be described thus: Omnia assay for potency assessment against active forms of ITK kinase. It counts as biochemical. The conditions noted are these: [ITK]=10 nM, [ATP]=25 μM, [Y6-Sox]=10 μM; read-out: ITK Inhibition. The protocol:
[ITK]=10 nM, [ATP]=25 μM, [Y6-Sox]=10 μM (ATP KMapp=33 μM).

In a further test the target is EGFR-WT (Homo sapiens (Human), UniProt P00533). The test is described as follows: Omnia assay for potency assessment against EGFR (WT). It counts as biochemical. The conditions noted are these: wild-type EGFR; read-out: EGFR Wild Type Inhibition.
In test [5] the test system is B cell lymphoma cell lines. The test is described as follows: B cell lymphoma proliferation assay. It counts as cell-based.

Sequence of EGFR-WT (P00533 25-1210): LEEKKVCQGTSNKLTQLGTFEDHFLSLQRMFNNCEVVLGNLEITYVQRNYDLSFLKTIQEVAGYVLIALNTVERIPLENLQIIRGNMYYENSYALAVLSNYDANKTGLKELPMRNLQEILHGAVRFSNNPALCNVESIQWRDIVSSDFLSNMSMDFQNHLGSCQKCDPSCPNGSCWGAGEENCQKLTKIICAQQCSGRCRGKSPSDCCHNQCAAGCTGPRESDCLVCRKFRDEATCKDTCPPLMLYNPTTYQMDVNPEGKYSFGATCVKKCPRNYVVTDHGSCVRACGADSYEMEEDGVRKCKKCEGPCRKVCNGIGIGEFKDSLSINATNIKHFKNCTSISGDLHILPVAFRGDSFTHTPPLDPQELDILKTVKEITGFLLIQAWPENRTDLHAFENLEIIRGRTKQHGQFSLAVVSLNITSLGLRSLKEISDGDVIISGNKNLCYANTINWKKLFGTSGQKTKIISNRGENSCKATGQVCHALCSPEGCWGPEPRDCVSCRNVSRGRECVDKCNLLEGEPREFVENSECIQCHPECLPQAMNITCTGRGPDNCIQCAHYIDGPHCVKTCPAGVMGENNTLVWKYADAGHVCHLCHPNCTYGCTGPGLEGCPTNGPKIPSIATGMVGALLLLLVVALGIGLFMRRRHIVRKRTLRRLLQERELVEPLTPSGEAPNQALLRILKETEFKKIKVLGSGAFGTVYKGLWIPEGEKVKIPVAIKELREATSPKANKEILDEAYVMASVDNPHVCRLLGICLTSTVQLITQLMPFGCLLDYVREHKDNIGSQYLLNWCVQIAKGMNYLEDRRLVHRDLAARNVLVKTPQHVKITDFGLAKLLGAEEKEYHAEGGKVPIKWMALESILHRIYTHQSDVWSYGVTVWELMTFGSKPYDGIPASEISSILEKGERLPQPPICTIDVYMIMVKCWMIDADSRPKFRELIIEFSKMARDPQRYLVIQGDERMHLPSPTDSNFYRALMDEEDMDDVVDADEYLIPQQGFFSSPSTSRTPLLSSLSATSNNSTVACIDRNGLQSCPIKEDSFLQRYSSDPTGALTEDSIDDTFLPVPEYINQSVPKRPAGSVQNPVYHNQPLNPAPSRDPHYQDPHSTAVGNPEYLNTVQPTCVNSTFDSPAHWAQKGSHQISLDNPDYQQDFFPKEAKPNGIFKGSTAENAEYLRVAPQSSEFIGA
Sequence of ITK (Q08881 whole entry): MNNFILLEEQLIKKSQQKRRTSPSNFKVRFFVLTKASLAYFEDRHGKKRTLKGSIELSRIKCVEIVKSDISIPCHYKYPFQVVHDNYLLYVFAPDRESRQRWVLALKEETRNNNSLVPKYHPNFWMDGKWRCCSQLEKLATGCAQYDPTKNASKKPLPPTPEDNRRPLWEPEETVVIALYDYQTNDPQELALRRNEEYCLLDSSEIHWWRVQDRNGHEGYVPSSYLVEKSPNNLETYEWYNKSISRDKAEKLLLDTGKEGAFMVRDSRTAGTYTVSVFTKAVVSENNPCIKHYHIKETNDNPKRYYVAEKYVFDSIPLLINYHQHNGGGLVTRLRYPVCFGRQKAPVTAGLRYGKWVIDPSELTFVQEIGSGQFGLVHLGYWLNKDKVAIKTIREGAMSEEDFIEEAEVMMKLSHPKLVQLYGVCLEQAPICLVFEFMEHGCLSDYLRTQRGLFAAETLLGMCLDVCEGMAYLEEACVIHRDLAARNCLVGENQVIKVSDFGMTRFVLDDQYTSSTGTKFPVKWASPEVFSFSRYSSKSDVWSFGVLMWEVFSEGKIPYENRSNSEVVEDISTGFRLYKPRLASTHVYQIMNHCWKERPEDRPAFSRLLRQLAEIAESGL
T2 sequence (Q06187 whole entry): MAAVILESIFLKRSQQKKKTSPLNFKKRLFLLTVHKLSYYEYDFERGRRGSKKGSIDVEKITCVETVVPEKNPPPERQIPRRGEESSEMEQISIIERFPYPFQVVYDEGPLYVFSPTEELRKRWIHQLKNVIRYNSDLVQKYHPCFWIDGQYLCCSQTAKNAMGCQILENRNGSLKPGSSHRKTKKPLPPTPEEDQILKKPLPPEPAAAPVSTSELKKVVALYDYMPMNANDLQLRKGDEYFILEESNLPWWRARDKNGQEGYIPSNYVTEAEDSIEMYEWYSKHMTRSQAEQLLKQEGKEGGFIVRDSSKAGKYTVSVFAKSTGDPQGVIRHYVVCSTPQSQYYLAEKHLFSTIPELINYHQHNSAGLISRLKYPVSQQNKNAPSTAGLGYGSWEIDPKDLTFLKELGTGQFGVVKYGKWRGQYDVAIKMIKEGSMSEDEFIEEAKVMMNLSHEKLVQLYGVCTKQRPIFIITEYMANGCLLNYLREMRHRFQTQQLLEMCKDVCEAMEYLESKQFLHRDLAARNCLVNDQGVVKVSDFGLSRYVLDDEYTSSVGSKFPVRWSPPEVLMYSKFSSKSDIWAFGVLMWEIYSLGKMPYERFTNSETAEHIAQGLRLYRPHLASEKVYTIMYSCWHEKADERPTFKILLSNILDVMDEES
T1 sequence (P52333 whole entry): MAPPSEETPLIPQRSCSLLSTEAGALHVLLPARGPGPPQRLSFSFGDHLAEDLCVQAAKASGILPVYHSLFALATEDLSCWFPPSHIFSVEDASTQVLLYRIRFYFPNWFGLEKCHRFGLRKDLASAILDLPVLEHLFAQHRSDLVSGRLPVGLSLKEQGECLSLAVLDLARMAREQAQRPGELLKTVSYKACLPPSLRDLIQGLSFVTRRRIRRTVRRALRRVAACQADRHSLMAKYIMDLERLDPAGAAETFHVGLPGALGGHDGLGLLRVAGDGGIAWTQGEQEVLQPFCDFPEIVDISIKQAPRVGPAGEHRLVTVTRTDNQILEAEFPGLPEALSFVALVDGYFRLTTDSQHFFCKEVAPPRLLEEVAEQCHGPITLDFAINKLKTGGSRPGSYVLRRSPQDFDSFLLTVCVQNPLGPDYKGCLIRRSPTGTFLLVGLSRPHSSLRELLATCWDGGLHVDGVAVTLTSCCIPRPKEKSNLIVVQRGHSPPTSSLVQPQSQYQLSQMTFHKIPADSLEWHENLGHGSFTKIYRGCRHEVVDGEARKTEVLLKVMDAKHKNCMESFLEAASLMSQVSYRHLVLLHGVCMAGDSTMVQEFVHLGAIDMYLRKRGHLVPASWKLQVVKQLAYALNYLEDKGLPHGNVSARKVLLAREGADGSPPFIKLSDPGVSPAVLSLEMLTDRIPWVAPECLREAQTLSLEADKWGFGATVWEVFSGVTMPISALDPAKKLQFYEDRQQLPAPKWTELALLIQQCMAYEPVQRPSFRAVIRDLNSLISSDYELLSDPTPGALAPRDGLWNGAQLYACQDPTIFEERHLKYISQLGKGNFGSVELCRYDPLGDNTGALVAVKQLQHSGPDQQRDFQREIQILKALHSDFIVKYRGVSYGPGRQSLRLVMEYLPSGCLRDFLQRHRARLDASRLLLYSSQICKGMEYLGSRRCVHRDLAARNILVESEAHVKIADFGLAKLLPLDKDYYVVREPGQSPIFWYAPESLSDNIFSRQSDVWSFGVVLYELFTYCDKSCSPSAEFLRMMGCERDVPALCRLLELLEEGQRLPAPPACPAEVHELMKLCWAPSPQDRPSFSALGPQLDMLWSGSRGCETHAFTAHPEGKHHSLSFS
Sequence of Erbb4 kinase domain (Q15303 718-985): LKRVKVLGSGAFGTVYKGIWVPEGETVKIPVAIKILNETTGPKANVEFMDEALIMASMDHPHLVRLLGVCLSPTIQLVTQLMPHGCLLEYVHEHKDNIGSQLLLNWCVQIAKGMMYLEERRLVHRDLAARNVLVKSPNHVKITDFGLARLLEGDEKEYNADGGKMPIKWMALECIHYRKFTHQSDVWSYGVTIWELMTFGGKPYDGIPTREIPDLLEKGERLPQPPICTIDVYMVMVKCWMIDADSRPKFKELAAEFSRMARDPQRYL

In the case of `Cc1cnc(Nc2cccc(S(N)(=O)=O)c2)nc1Nc1ccc2c(c1)CCN(C(=O)CCl)C2` [Compound I-11, 3-(4-(2-(2-chloroacetyl)-1,2,3,4-tetrahydroisoquinolin-6-ylamino)-5-methylpyrimidin-2-ylamino)benzenesulfonamide], the “covalent modification of ErbB4 by mass spectrometry” value at Erbb4 kinase domain is “covalent modification”. Also, at JAK3 [1], the “covalent modification of JAK3 peptide LVMEYLPSGCLR (Cys909) by mass spectrometry” value was “measurable modification”. For the same compound, on JAK3 [2], the IC50 is below 10 nM.

Consider `C=CC(=O)Nc1cccc(Oc2nc(Nc3cccc(OC)c3)ncc2C(=O)NC2CC2)c1` [Compound I-177, 4-(3-acrylamidophenoxy)-2-(3-methoxyphenylamino)-pyrimidine-5-carboxylic Acid Cyclopropylamide], for which the IC50 on BTK [3] is below 10 nM; at BTK [4], 100 to 1000 nM; at ITK, 10 to 100 nM; on EGFR-WT, below 10 nM.

For `C=CC(=O)Nc1cccc(Oc2nc(Nc3cccc(OC)c3)ncc2C(N)=O)c1` [Compound I-178, 4-(3-acrylamidophenoxy)-2-(3-methoxyphenylamino)pyrimidine-5-carboxylic Acid Amide], the IC50 at BTK [3] was below 10 nM; on BTK [4], 10 to 100 nM; on ITK, 10 to 100 nM; on EGFR-WT, below 10 nM. For the same compound, the EC50 in test [5] (DHL4 B cell lymphoma cell line, read-out: EC50 (μM) DHL4) was above 10 µM; in test [5] (Homo sapiens, DOHH-2, DOHH2 B cell lymphoma cell line, read-out: EC50 (μM) DOHH2) it was 1 to 10 µM; in test [5] (Homo sapiens, WSUDLCL2, WSU-DLCL2 B cell lymphoma cell line, read-out: EC50 (μM) WSU-DLCL2), above 10 µM.

Regarding `C=CC(=O)N1CCC[C@@H](Oc2nc(Nc3ccc(OC)nc3)ncc2F)C1` [Compound I-180, (R)-1-(3-(5-fluoro-2-(6-methoxypyridin-3-ylamino)pyrimidin-4-yloxy)piperidin-1-yl)prop-2-en-1-one], the IC50 on BTK [3] was below 10 nM; at BTK [4], 100 to 1000 nM; at ITK it was 100 to 1000 nM; at EGFR-WT it was 100 to 1000 nM.
